Laboratory results taken from US20100022559A1, “BISOXIMES AS FUNGICIDES” (BAYER CROPSCIENCE AG, priority 2006, published 2010).
Where two headings read alike, the source gives them in different places.

Assay: logP determination by HPLC on a reversed-phase column (C 18), EEC Directive 79/831 Annex V.A8
Type: physicochemical
Details: for chromatographic logP: reversed-phase HPLC column (C 18)
Procedure: The stated logP values were determined in accordance with EEC Directive 79/831 Annex V.A8 by HPLC (high performance liquid chromatography) on a reversed-phase column (C 18). Temperature: 43° C.

[1] = method marker [a] (footnote not shown), isomer A / isomer B / isomer mixture as noted in the cell
[2] = method marker [b], isomer A / isomer B / isomer mixture as noted in the cell
[3] = HCO2H, HPLC reversed-phase column (C 18), 43° C., read-out: logP (HCO2H)

Cc1cccnc1C(CC(C)C)=NOCC(C)CON=C(CC(C)C)c1ncccc1C (single isomer, unassigned) [compound 110]
logP [1]: 5.78^[a] (isomer A)

CCC(=NOCCCON=C(C)c1cccc(C)n1)c1ncccc1C [compound 156]
logP [2]: 3.28^[b]

CC(=NOCCCC(=O)ON=C(C)c1cccc(C)n1)c1cccc(C)n1 [compound 171]
logP [1]: 2.44^[a]

CC[Si](CC)(CON=C(C)c1cc(C)cc(C)n1)CON=C(C)c1cc(C)cc(C)n1 [Compound 787]
logP (value marked [a]): 5.05^[a] | logP (value marked [b]): 5.05^[b] | logP (value marked [c]): 7.36^[c]

CC(=NOCC(C)CON=C(C)c1cc(Cl)cc(C)n1)c1cccc(C)n1 (centres unmarked) [compound 877]
logP (value marked [a]): 6.58^[a] | logP (value marked [b]): 6.58^[b] | logP (value marked [c]): 7.36^[c]

Cc1cccc(C(=NOCC2(CON=C(c3cccc(C)n3)C3CC3)CC(c3ccccc3)=NO2)C2CC2)n1 (centres unmarked) [compound 650]
logP (method marked [a] in Table 1): 3.80^[a]

CC(=NOCCCCON=C(C)c1cccc(C)n1)c1ccc(Cl)cc1 [compound 444]
logP (value marked [b]): 5.54^[b]

CC(=NOCCCCON=C(Cc1ccccc1)c1ncccc1C)c1cccc(C)n1 [compound 528]
logP (value marked [b]): 3.24^[b]

C/C(=N\OCC1(CO/N=C(\C)c2ccc(C)c(C)n2)CC1)c1cc(C)cc(C)n1 [(1E)-1-(4,6-dimethylpyridin-2-yl)ethanone O-({1-[({[(1E)-1-(5,6-dimethylpyridin-2-yl)ethylidene]amino}oxy)methyl]cyclopropyl}methyl)oxime]
chromatographic logP [3]: 2.61

CCC(=NOc1ncnc(ON=C(C)c2cccc(C)n2)c1C)c1ncccc1C [compound 739]
logP (method marked [b] in Table 1): 2.18^[b]

CCC(=NOCC1(CON=C(CC)c2cccc(C)n2)CC(C(C)C)=NO1)c1cccc(C)n1 (centres unmarked) [compound 606]
logP (method marked [b] in Table 1): 4.67^[b]

CC(=NOCC(C)CON=C(C)c1cccc(Cl)n1)c1cccc(Cl)n1 (centres unmarked) [compound 568]
logP (method marked [a] in Table 1): 6.08^[a]

C=C(CON=C(C)c1cccc(C)n1)CON=C(C)c1cc(C(F)(F)F)cc(C)n1 [compound 211]
logP [2]: 5.70^[b]

C=C(CON=C(C)c1ccc2ccccc2c1)CON=C(C)c1cccc(C)n1 [compound 472]
logP (value marked [b]): 5.48^[b]

CCC(CC)(CON=C(C)c1cccc(C)n1)CON=C(C)c1cccc(C)n1 [Compound 809]
logP (value marked [b]): 6.68^[b] | logP (value marked [c]): 6.97^[c]

CCCC(=NOCCCCON=C(C)c1cccc(C)n1)c1cccc(C)n1 [compound 330]
logP (value marked [b]): 4.82^[b]

CCC(=NOCCCON=C(CC)c1ccc(C)c(C)n1)c1ccc(C)c(C)n1 (mixture of isomers) [Compound 236]
logP [1]: 3.80^[a]

Cc1cccc(C(=NOCCCON=C(c2cccc(C)n2)C(C)C)C(C)C)n1 (single isomer, unassigned) [Compound 88]
logP [1]: 5.52^[a] (isomer B)

CC(=NOCCCCON=C(C)c1cccc(C)n1)c1ccncc1 [compound 440]
logP (value marked [b]): 1.88^[b]

C=C(CON=C(C)c1nc(C)cc(C)n1)CON=C(C)c1nc(C)cc(C)n1 [compound 146]
logP [2]: 2.91^[b]

C/C(=N\OCC1(CON)CC1)c1ccc(C)c(C)n1 [XII-8, (1E)-1-(5,6-dimethylpyridin-2-yl)ethanone O-({1-[(aminooxy)methyl]-cyclopropyl}methyl)oxime]
chromatographic logP [3]: 0.73 | chromatographic logP ([a] acidic range, pH 2.3, 0.1% aqueous phosphoric acid and acetonitrile, read-out: logP): 0.53 | chromatographic logP ([b] LC-MS, acidic range, pH 2.7, 0.1% aqueous formic acid and acetonitrile, read-out: logP): 0.53 | chromatographic logP ([c] LC-MS, neutral range, pH 7.8, 0.001 molar aqueous ammonium bicarbonate solution and acetonitrile, read-out: logP): 2.44

CCCC(=NOCCCCON=C(C)c1cccc(C)n1)c1ncccc1C (single isomer, unassigned) [Compound 327]
logP (value marked [b]): 3.61^[b] (isomer A)

C=C(CON=C(C)c1cccc(C)n1)CON=C(N)c1ccc(C)c(C)n1 [compound 808]
logP (value marked [a]): 2.38^[a]

CC(=NOC[C@@H]1O[C@@H]1CON=C(C)c1cccc(C)n1)c1cccc(C)n1 [compound 287]
logP (value marked [b]): 2.42^[b]

CC(=NOCC(C)(C)CON=C(C)c1nc2ccccc2[nH]1)c1nc2ccccc2[nH]1 [Compound 573]
logP (method marked [a] in Table 1): 2.10^[a]

CCC(=NOCCCCON=C(C)c1cccc(C)n1)c1ncccc1C (single isomer, unassigned) [compound 328]
logP (value marked [b]): 3.65^[b] (isomer B)

Cc1cc(C)nc(C(C#N)=NOCC(C)CON=C(C#N)c2cc(C)cc(C)n2)c1 (centres unmarked) [Compound 838]
logP (value marked [a]): 4.84^[a]

CCOC(=O)C(C)(CON=C(C)c1cc(C)cc(C)n1)CON=C(C)c1cc(C)cc(C)n1 (centres unmarked) [compound 855]
logP (value marked [b]): 2.79^[b] | logP (value marked [c]): 5.72^[c]

CCC(=NOCC1(CON=C(CC)c2cccc(C)n2)CC(c2ccc(Cl)cc2)=NO1)c1cccc(C)n1 (centres unmarked) [compound 612]
logP (method marked [b] in Table 1): 5.84^[b]

CCCC(=NOCC1(CON=C(CCC)c2cccc(C)n2)CC(C(C)C)=NO1)c1cccc(C)n1 (centres unmarked) [compound 616]
logP (method marked [b] in Table 1): 5.71^[b]

C=C(CON=C(C)c1cccc(C)n1)CON=C(N)c1nc(C)c(C(C)CC)c(C2CC2)n1 (centres unmarked) [Compound 244]
logP [2]: 3.99^[b]

CCc1cc(CC)nc(C(C)=NOCC(C)CON=C(C)c2cc(CC)cc(CC)n2)c1 (centres unmarked) [compound 574]
logP (method marked [a] in Table 1): 5.95^[a]
